Each structure is given as a SMILES string.

This test relates to Maillard reaction. Description: Inhibitory effect on Maillard reaction in vitro (BSA + glucose incubation, fluorescence). Particulars: 6mM test compound; 100 mg/ml bovine serum albumin (BSA), 200 mM glucose, 0.5 M phosphatic buffer solution (pH 7.38), incubated for a week at 37°C; fluorescence excitation 360nm, emission 450 nm. Format: biochemical. Here is the method:
An inhibitory activity on Maillard reaction of the compounds of the present invention was confirmed by the screening system mentioned below.
In order to evaluate the inhibitory effect on Maillard reaction in vitro, of the compounds in the present invention, the measurement was carried out under conditions described below.
100 mg/ml bovine serum albumin (BSA), 200 mM glucose and 6mM test compound were dissolved in 0.5 M phosphatic buffer solution (pH 7.38), and the mixture was incubated for a week at 37°C.
After incubation, the incubated medium was diluted 100 times with the same phosphatic buffer solution, and the fluorescence spectrum was measured at the excitation maximum of 360nm and the emission maximum of 450 nm.
Inhibition percentage of the test compounds was calculated by the following equation: [formula] ΔI₁ : fluorescence of test compounds ΔI₂ : fluorescence of (test compounds + glucose), ΔI₃ : fluorescence of (test compounds + BSA), ΔI₄ : fluorescence of (test compounds + BSA + glucose), ΔI : fluorescence of (BSA + glucose)
For the compound `Cc1ccc(NNC(=N)N)cc1.O=S(=O)(O)O` [1(h), 1-(4-methylanilino) guanidine sulfate], the “Inhibitory effect (%) (6mM)” value turned out to be 83%.
Regarding `N=C(N)NNc1ccc(Cl)cc1.O=S(=O)(O)O` [1(b), 1-(4-chloroanilino) guanidine sulfate], the “Inhibitory effect (%) (6mM)” value is listed as 100%.
Consider `N=C(N)NNc1ccc(F)cc1.O=S(=O)(O)O` [1(c), 1-(4-fluoroanilino) guanidine sulfate], for which the “Inhibitory effect (%) (6mM)” value was 100%.
To `COc1ccc(NNC(=N)N)cc1.O=S(=O)(O)O` [1(d), 1-(4-methoxyanilino) guanidine sulfate] belongs 100%; to `N=C(N)NNc1ccccc1.O=S(=O)(O)O` [Example 1, 1-anilinoguanidine sulfate], 79%; to `N=C(N)NNc1cccc([N+](=O)[O-])c1.O=S(=O)(O)O` [1(j), 1-(3-nitroanilino) guanidine sulfate], 94%.
Take `N=C(N)NNc1ccccc1Cl.O=S(=O)(O)O` [Example 1(a), 1-(2-chloroanilino) guanidine sulfate]: the “Inhibitory effect (%) (6mM)” value is 79%.
